In DBAASP:
Values after ≈ are worked out from the molar mass of the structure shown.

Assays:
Test in all cases: ≥ marks a high value that may be exact or a test limit, other limits are often not marked, values filed in µg/mL are converted to µM
Proteus vulgaris = test system: Proteus vulgaris
[1] = test system: Staphylococcus aureus KCTC 1621
[2] = test system: Bacillus subtilis KCTC 1918
[3] = test system: Pseudomonas aeruginosa KCTC 1637
[4] = test system: Escherichia coli KCTC 1682
[5] = test system: Bacillus megaterium KCTC 1096
[6] = test system: Escherichia coli NCTC 10418
[7] = test system: Staphylococcus aureus USA 300
[8] = test system: Staphylococcus aureus ATCC 9144
[9] = test system: Candida albicans NCPF 1467
[10] = test system: Pseudomonas aeruginosa PAO1
[11] = test system: Klebsiella pneumoniae NCTC 13368
[12] = test system: Escherichia coli NCTC 12923
[13] = test system: Staphylococcus aureus NCTC 10788
[14] = test system: Acinetobacter baumannii ATCC 17978
[15] = test system: Batrachochytrium dendrobatidis JEL-197
[16] = test system: Escherichia coli ATCC 25922
[17] = test system: Staphylococcus aureus FDA 209P
[18] = test system: Bacillus subtilis ATCC 6633
[19] = test system: Candida albicans ATCC 90028
[20] = test system: Escherichia coli ATCC 25726
[21] = test system: Staphylococcus aureus ATCC 25923
[22] = test system: Staphylococcus aureus IFO 12732
[23] = test system: Escherichia coli IFO 12734
[24] = test system: Bacillus subtilis IFO 3513

Compound `CC[C@H](C)[C@H](NC(=O)[C@H](CCCCN)NC(=O)[C@H](CCCCN)NC(=O)[C@H](Cc1ccccc1)NC(=O)[C@H](CC(C)C)NC(=O)[C@H](CCCCN)NC(=O)[C@@H](N)Cc1ccccc1)C(=O)N1CCC[C@H]1C(=O)N[C@@H](CCCCN)C(=O)N[C@@H](Cc1ccccc1)C(=O)N[C@@H](CC(C)C)C(=O)N[C@@H](Cc1cnc[nH]1)C(=O)N[C@@H](CC(C)C)C(=O)N[C@@H](C)C(=O)N[C@@H](CCCCN)C(=O)N[C@@H](CCCCN)C(=O)N[C@@H](Cc1ccccc1)C(N)=O` [FKLFKKIPKFLHLAKKF] has an MIC (Proteus vulgaris) of 1.56 µM (≈ 3.33 µg/mL), an MIC [1] of 3.12 µM (≈ 6.66 µg/mL) and an MIC [2] of 0.78 µM (≈ 1.66 µg/mL). It also gave an MIC [3] of 1.56 µM (≈ 3.33 µg/mL), an MIC [4] of 6.26 µM (≈ 13.4 µg/mL) and an MIC [5] of 0.78 µM (≈ 1.66 µg/mL).

With `CC[C@H](C)[C@H](NC(=O)[C@H](C)NC(=O)[C@H](CCCCN)NC(=O)[C@@H]1CCCN1C(=O)[C@@H](NC(=O)[C@H](CC(C)C)NC(=O)[C@H](CO)NC(=O)[C@H](Cc1ccccc1)NC(=O)[C@H](CC(C)C)NC(=O)[C@@H](N)Cc1ccccc1)[C@@H](C)CC)C(=O)NCC(=O)NCC(=O)N[C@@H](CC(C)C)C(=O)N[C@H](C(=O)N[C@@H](CO)C(=O)N[C@@H](C)C(=O)N[C@@H](Cc1ccccc1)C(=O)N[C@@H](CCCCN)C(N)=O)[C@@H](C)CC` [FLFSLIPKAIGGLISAFK] the MIC [6] was 5 µM (≈ 9.61 µg/mL), the MIC [7] was 4.16 µM (≈ 8 µg/mL) and the MIC [8] was 2.08 µM (≈ 4 µg/mL). The MIC [9] was 5 µM (≈ 9.61 µg/mL), the MIC [10] was over 66.6 µM and the MIC [11] was at least 33.3 µM. The MIC [12] was 8.32 µM (≈ 16 µg/mL), the MIC [13] was 3 µM (≈ 5.76 µg/mL) and the MIC [14] was 4.16 µM (≈ 8 µg/mL).

With `CC[C@H](C)[C@@H]1NC(=O)[C@H](C)NC(=O)[C@@H](NC(=O)[C@H](Cc2ccccc2)NC(=O)[C@@H](NC(=O)[C@H](CCCCN)NC(=O)[C@@H]2CCCN2C(=O)[C@H](CC(C)C)NC(=O)[C@H](Cc2ccccc2)NC(=O)[C@H](CCC(N)=O)NC(=O)CNC(=O)[C@H](C)NC(=O)[C@H](C)NC(=O)CNC(=O)[C@@H](NC(=O)[C@@H](NC(=O)[C@H](C)NC(=O)[C@@H]2CCCN2C(=O)[C@H](CC(C)C)NC(=O)[C@@H](N)Cc2ccccc2)[C@@H](C)CC)C(C)C)[C@@H](C)CC)CSSC[C@@H](C(=O)O)NC(=O)[C@H](CCCCN)NC(=O)[C@H](CCCCN)NC(=O)[C@H](CO)NC1=O` [FLPAIVGAAGQFLPKIFCAISKKC] the MIC [15] was at least 40 µM and the MIC [16] was 55 µM (≈ 139 µg/mL).

`CC(C)C[C@H](NC(=O)[C@H](CCC(N)=O)NC(=O)[C@H](CCC(N)=O)NC(=O)[C@H](C)NC(=O)CNC(=O)[C@H](C)NC(=O)[C@H](CCCCN)NC(=O)CNC(=O)[C@@H](NC(=O)[C@H](CO)NC(=O)[C@H](CCCCN)NC(=O)[C@H](CC(C)C)NC(=O)[C@H](CC(C)C)NC(=O)[C@H](Cc1ccc(O)cc1)NC(=O)[C@H](CCCCN)NC(=O)[C@H](C)NC(=O)CNC(=O)[C@H](C)NC(=O)[C@H](CCCCN)NC(=O)[C@H](Cc1ccccc1)NC(=O)[C@H](CC(C)C)NC(=O)[C@H](CO)NC(=O)[C@H](CO)NC(=O)[C@H](Cc1ccccc1)NC(=O)CN)C(C)C)C(=O)N[C@@H](C)C(=O)N[C@H]1CSSC[C@@H](C(=O)N[C@@H](C)C(=O)O)NC(=O)[C@H](CC(N)=O)NC(=O)[C@H](CC(N)=O)NC(=O)[C@H](C)NC(=O)[C@H](C)NC(=O)[C@H](CCCCN)NC1=O` [GFSSLFKAGAKYLLKSVGKAGAQQLACKAANNCA] gave an MIC [17] of 4.36 µM (≈ 14.9 µg/mL) and an MIC [18] of 18.7 µM (≈ 64 µg/mL).

In the case of `CC[C@H](C)[C@H](NC(=O)CN)C(=O)N[C@@H](CCSC)C(=O)N[C@@H](CC(N)=O)C(=O)N[C@H](C(=O)N[C@H](C(=O)N[C@@H](CCCCN)C(=O)N[C@@H](CC(=O)O)C(=O)N[C@H](C(=O)N[C@@H](C)C(=O)N[C@H](C(=O)NCC(=O)N[C@H](C(=O)N[C@@H](C)C(=O)N[C@H](C(=O)N[C@@H](Cc1cnc[nH]1)C(=O)N[C@@H](CC(C)C)C(=O)N[C@@H](CC(C)C)C(=O)N[C@@H](CC(N)=O)C(=O)N[C@@H](CCSC)C(=O)N[C@H](C(=O)N[C@@H](CCCCN)C(=O)N[C@H]1CSSC[C@@H](C(=O)O)NC(=O)CNC(=O)[C@H]([C@@H](C)O)NC(=O)[C@H]([C@@H](C)CC)NC(=O)[C@H](CCCCN)NC1=O)C(C)C)[C@@H](C)O)C(C)C)[C@@H](C)O)C(C)C)C(C)C)[C@@H](C)O` [GIMNTVKDVATGVATHLLNMVKCKITGC], the MIC [19] is reported as at least 100 µM, the MIC [15] is reported as at least 100 µM and the MIC [20] is reported as at least 50 µM. For the same compound, the MIC [21] was over 50 µM.

`CC[C@H](C)[C@H](N)C(=O)N[C@@H](CC(C)C)C(=O)N1CCC[C@H]1C(=O)N[C@@H](Cc1c[nH]c2ccccc12)C(=O)N[C@@H](CCCCN)C(=O)N[C@@H](Cc1c[nH]c2ccccc12)C(=O)N1CCC[C@H]1C(=O)N[C@@H](CC(C)C)C(=O)N[C@@H](Cc1c[nH]c2ccccc12)C(=O)N1CCC[C@H]1C(=O)N[C@@H](Cc1c[nH]c2ccccc12)C(=O)N[C@@H](CCCN=C(N)N)C(=O)N[C@@H](CCCN=C(N)N)C(N)=O` [ILPWKWPLWPWRR] showed an MIC [22] of 0.851 µM (≈ 1.56 µg/mL), an MIC [23] of 6.81 µM (≈ 12.5 µg/mL) and an MIC [24] of 1.71 µM (≈ 3.13 µg/mL).

For `CC[C@H](C)[C@H](N)C(=O)N[C@@H](CC(C)C)C(=O)N1CCC[C@H]1C(=O)N[C@@H](Cc1c[nH]c2ccccc12)C(=O)N[C@@H](CCCCN)C(=O)N[C@@H](Cc1c[nH]c2ccccc12)C(=O)N1CCC[C@H]1C(=O)N[C@@H](Cc1c[nH]c2ccccc12)C(=O)N[C@@H](CC(C)C)C(=O)N1CCC[C@H]1C(=O)N[C@@H](CCCCN)C(=O)N[C@@H](CCCN=C(N)N)C(=O)N[C@@H](CCCN=C(N)N)C(N)=O` [ILPWKWPWLPKRR], the MIC [22] was 3.52 µM (≈ 6.25 µg/mL), the MIC [23] was 28.2 µM (≈ 50 µg/mL) and the MIC [24] was 1.76 µM (≈ 3.13 µg/mL).

Compound `CC[C@H](C)[C@H](N)C(=O)N[C@@H](CC(C)C)C(=O)N1CCC[C@H]1C(=O)N[C@@H](Cc1c[nH]c2ccccc12)C(=O)N[C@@H](CCCCN)C(=O)N[C@@H](Cc1c[nH]c2ccccc12)C(=O)N1CCC[C@H]1C(=O)N[C@@H](Cc1c[nH]c2ccccc12)C(=O)N[C@@H](Cc1c[nH]c2ccccc12)C(=O)N1CCC[C@H]1C(=O)N[C@@H](CC(C)C)C(=O)N[C@@H](CCCN=C(N)N)C(=O)N[C@@H](CCCN=C(N)N)C(N)=O` [ILPWKWPWWPLRR] has an MIC [22] of 1.71 µM (≈ 3.13 µg/mL), an MIC [23] of 13.6 µM (≈ 25 µg/mL) and an MIC [24] of 1.71 µM (≈ 3.13 µg/mL).

`CC[C@H](C)[C@H](NC(=O)[C@H](CCCCN)NC(=O)[C@H](CCCCN)NC(=O)[C@H](Cc1ccccc1)NC(=O)[C@H](CC(C)C)NC(=O)[C@H](CCCCN)NC(=O)[C@H](Cc1c[nH]c2ccccc12)NC(=O)[C@@H](N)CCCCN)C(=O)N[C@@H](CO)C(=O)N[C@@H](CCCCN)C(=O)N[C@@H](Cc1ccccc1)C(=O)N[C@@H](CC(C)C)C(=O)N[C@@H](Cc1cnc[nH]1)C(=O)N[C@@H](CC(C)C)C(=O)N[C@@H](C)C(=O)N[C@@H](CCCCN)C(=O)N[C@@H](CCCCN)C(=O)N[C@@H](Cc1ccccc1)C(N)=O` [KWKLFKKISKFLHLAKKF] showed an MIC (Proteus vulgaris) of 6.25 µM (≈ 14.3 µg/mL), an MIC [1] of 6.25 µM (≈ 14.3 µg/mL) and an MIC [2] of 1.56 µM (≈ 3.57 µg/mL). It also gave an MIC [3] of 6.25 µM (≈ 14.3 µg/mL), an MIC [4] of 25 µM (≈ 57.2 µg/mL) and an MIC [5] of 3.12 µM (≈ 7.16 µg/mL).
